Data set [1] has as its system N. cyriacigeorgica complex NEQAS 3295. Briefly: Bacterial susceptibility testing (MIC, broth microdilution). It counts as cell-based. The settings on record: Nocardia cyriacigeorgica. On the procedure:
(§1) Minimal inhibitory concentrations (MIC) against a variety of gram-negative and gram-positive bacterial strains were determined by the broth microdilution method in accordance with the Clinical and Laboratory Standards Institute (CLSI) guidelines. In brief, organism suspensions were adjusted to a 0.5 McFarland standard to yield a final inoculum between 3×10^5 and 7×10^5 colony-forming units (CFU)/mL. Drug dilutions and inocula were made in sterile, cation adjusted Mueller-Hinton Broth (Beckton Dickinson). An inoculum volume of 100 μL was added to wells containing 100 μL. of broth with 2-fold serial dilutions of drug. All inoculated microdilution trays were incubated in ambient air at 35° C. for 18-24 h. Following incubation, the lowest concentration of the drug that prevented visible growth (OD600 nm<0.05) was recorded as the MIC. Performance of the assay was monitored by the use of laboratory quality-control strains and levofloxacin, a compound with a defined MIC spectrum, in accordance with CLSI guidelines.
A general note: In broth dilution the organism is exposed to a series of concentrations in liquid medium.

In data set [2] the test system is gram-negative and gram-positive bacterial strains. Briefly: Bacterial susceptibility testing, whole panel. The format is cell-based. On the procedure:
as §1

Data set [3] can be described thus: Oral solution formulation excipient screening (solubility estimated by HPLC). It counts as physicochemical. The text has this:
The solubility of Compound A was estimated by HPLC in multiple potential excipients for a solution formulation (Table 4).

The structures appear in SMILES notation. Converted amounts (≈) assume the structure as drawn.

In the case of `C[C@H]1COc2c(N3CCN(C)CC3)c(F)cc3c(=O)c(C(=O)O)cn1c23` [Levofloxacin], the lowest concentration to inhibit growth in data set [1] (MIC) was 8 µg/mL (≈ 22.1 µM).

On to `N#CC1CN(C[C@@H](Cc2ncnc(O)c2O)c2ccc(C#Cc3ccc(CN4CCOCC4)cc3)cc2)C1` [Compound A, (S)-1-(3-(5,6-dihydroxypyrimidin-4-yl)-2-(4-((4-(morpholinomethyl)phenyl)ethynyl)phenyl)propyl)azetidine-3-carbonitrile], for which the “selectivity for gram-negative bacteria over gram-positive bacteria” value in data set [2] (from MIC panel of Table 1) is on record as “high selectivity”. Further, in data set [1], the minimal inhibitory concentration (MIC) was over 64 µg/mL. Besides, the solubility in data set [3] (Capmul MCM, oil or lipid) was 330 µg/mL (≈ 648 µM); in data set [3] (Cremophor RH40, aqueous with cosolvent or surfactant or cyclodextrin) it was 900 µg/mL (≈ 1770 µM); in data set [3] (HCl solution (pH 0.5), pH 0.5, simulated gastric fluid), at least 45000 µg/mL; in data set [3] (Labrafil M 1944, oil or lipid), 120 µg/mL (≈ 235 µM); in data set [3] (Lactic acid, organic solvent or mixture), at least 20000 µg/mL; in data set [3] (Maisine CC, oil or lipid), 130 µg/mL (≈ 255 µM). Moreover, the solubility in data set [3] (Oleic acid, oil or lipid) is 480 µg/mL (≈ 942 µM); in data set [3] (Peppermint oil, oil or lipid), 50 µg/mL (≈ 98.1 µM); in data set [3] (Polysorbate 20, aqueous with cosolvent or surfactant or cyclodextrin), 850 µg/mL (≈ 1670 µM); in data set [3] (Polysorbate 80, aqueous with cosolvent or surfactant or cyclodextrin), 620 µg/mL (≈ 1220 µM); in data set [3] (Propylene glycol (pH 0.5), pH 0.5, organic solvent or mixture), at least 45000 µg/mL; in data set [3] (Propylene glycol, organic solvent or mixture), under 10000 µg/mL. The solubility in data set [3] (SBEβCD (30% w/v), pH 0.5, pH 0.5, aqueous with cosolvent or surfactant or cyclodextrin) was at least 45000 µg/mL; in data set [3] (SBEβCD (30% w/v), pH 3, pH 3, aqueous with cosolvent or surfactant or cyclodextrin), under 10000 µg/mL; in data set [3] (Solutol HS 15, aqueous with cosolvent or surfactant or cyclodextrin), 630 µg/mL (≈ 1240 µM); in data set [3] (Soybean oil, oil or lipid), 20 µg/mL (≈ 39.2 µM); in data set [3] (Transcutol (pH 0.5), pH 0.5, organic solvent or mixture) it was at least 10000 µg/mL; in data set [3] (Transcutol, organic solvent or mixture) it was under 10000 µg/mL. Further, the solubility in data set [3] (Vitamin E TPGS, aqueous with cosolvent or surfactant or cyclodextrin) is under 10000 µg/mL; in data set [3] (aqueous with cosolvent or surfactant or cyclodextrin, Gelucire 44/14 (surfactant)), under 10000 µg/mL; in data set [3] (organic solvent or mixture, PEG400 (co-solvent)) it was under 10000 µg/mL. Besides, the “solubility in excipients, overall” value in data set [3] (most excipients, acidifying the excipients led to higher solubility) is “Low solubility”.

With `C[C@@H](O)[C@H]1C(=O)N2C(C(=O)O)=C(S[C@@H]3CN[C@H](C(=O)N(C)C)C3)[C@H](C)[C@H]12` [Meropenem, reference compound], the “activity against gram-positive bacteria” value in data set [2] (various strains of gram-positive bacteria) is listed as “do have activity”. For the same molecule, the MIC in data set [1] was over 1 µg/mL.

In general, MIC refers to the least concentration at which growth counts as inhibited. Low readings indicate greater potency, high ones weaker potency. The solubility is how much of the substance goes into solution per volume.

The values are drawn from patent US20230201214A1, “LPXC INHIBITOR, FORMULATIONS, AND USES THEREOF” (priority 2020, published 2023).
